Data reported in PubChem BioAssay (NCI).
“And” between values parts separate entries of the source, which are not always exact repeats. Identical values can stand only once.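 Cultured in 96-well plates, cells were exposed to test compound for 48 hours across five concentrations. GI50 marks 50% less growth. Definition used: TGI = concentration required for complete inhibition of growth.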

How the values were obtained:
Experiment in all cases: NCI-60 cell line screen, 48 h; in the data active means GI50 below about 0.43 µM; inactive means the rest
PC-3 prostate = tested on: PC-3 prostate
M14 melanoma = tested on: M14 melanoma
MDA-MB-231 breast = tested on: MDA-MB-231 breast
MALME-3M melanoma = tested on: MALME-3M melanoma
HS 578T breast = tested on: HS 578T breast
A498 renal = tested on: A498 renal
NCI/ADR-RES ovarian = tested on: NCI/ADR-RES ovarian
UACC-257 melanoma = tested on: UACC-257 melanoma
HCT-15 colon = tested on: HCT-15 colon
SK-OV-3 ovarian = tested on: SK-OV-3 ovarian

CC(=O)NC1C(CO)O[C@@H]2OC(C)(C)O[C@H]12 (stereo partly drawn)
> 100 µM: TGI (PC-3 prostate) | TGI (M14 melanoma) | TGI (MDA-MB-231 breast) | TGI (MALME-3M melanoma) | TGI (HS 578T breast) | TGI (A498 renal) | TGI (NCI/ADR-RES ovarian) | TGI (UACC-257 melanoma) | TGI (HCT-15 colon)

CC(=O)/C=C/C=C(\C)CC/C=C(\C)CC(C)C
> 100 µM: TGI (PC-3 prostate) | TGI (SK-OV-3 ovarian) | TGI (M14 melanoma) | TGI (MDA-MB-231 breast) | TGI (HS 578T breast)
30.6 µM: TGI (HCT-15 colon)
60 µM: TGI (UACC-257 melanoma)
83.3 µM: TGI (A498 renal)

CC[C@]12C=CCN3CCC4(c5cc(N=Nc6ccccc6)c(OC)cc5N(C)[C@H]4[C@@](O)(C(=O)OC)[C@@H]1OC(C)=O)[C@@H]32 (stereo partly drawn)
43.6 µM: TGI (M14 melanoma)
34.4 µM: TGI (HCT-15 colon)
39 µM: TGI (HS 578T breast)
32.2 µM: TGI (A498 renal)
29.8 µM: TGI (PC-3 prostate)
34.9 µM: TGI (UACC-257 melanoma)
55.6 µM: TGI (NCI/ADR-RES ovarian)
33.5 µM: TGI (MALME-3M melanoma)
31.6 µM: TGI (MDA-MB-231 breast)

O=C(c1ccccc1)c1c(C(F)(F)F)n([O-])c2ccccc2[n+]1=O
4.72 µM: TGI (A498 renal)
3.5 µM: TGI (UACC-257 melanoma)
> 100 µM: TGI (HS 578T breast) | TGI (NCI/ADR-RES ovarian) | TGI (HCT-15 colon)
2.27 µM: TGI (PC-3 prostate)

Cc1ccc(S(=O)(=O)n2cncc2CO)cc1
> 100 µM: TGI (PC-3 prostate) | TGI (SK-OV-3 ovarian) | TGI (M14 melanoma) | TGI (MDA-MB-231 breast) | TGI (MALME-3M melanoma) | TGI (HS 578T breast) | TGI (NCI/ADR-RES ovarian) | TGI (UACC-257 melanoma) | TGI (HCT-15 colon)

COc1cc(C2C3=C(CCC3=O)Oc3cc4c(cc32)OCO4)cc(OC)c1OC (stereo not drawn)
> 100 µM: TGI (SK-OV-3 ovarian) | TGI (M14 melanoma) | TGI (MALME-3M melanoma) | TGI (UACC-257 melanoma) | TGI (HCT-15 colon)

CN(C)CCOC(=O)COc1ccc(Cl)cc1
> 100 µM: TGI (PC-3 prostate) | TGI (SK-OV-3 ovarian) | TGI (M14 melanoma) | TGI (MDA-MB-231 breast) | TGI (MALME-3M melanoma) | TGI (A498 renal) | TGI (NCI/ADR-RES ovarian) | TGI (UACC-257 melanoma) | TGI (HCT-15 colon)

CC(CCC(=O)O)[C@H]1CCC2[C@H]3C(CC[C@@]21C)[C@@]1(C)CCC(O)C[C@H]1C[C@@H]3O (stereo partly drawn)
> 100 µM: TGI (PC-3 prostate) | TGI (M14 melanoma) | TGI (MDA-MB-231 breast) | TGI (MALME-3M melanoma) | TGI (A498 renal) | TGI (NCI/ADR-RES ovarian) | TGI (UACC-257 melanoma) | TGI (HCT-15 colon)

N#CCCC1C(C#N)C2CC1C1C3C=CC(C3)C21 (stereo not drawn)
> 100 µM: TGI (PC-3 prostate) | TGI (SK-OV-3 ovarian) | TGI (M14 melanoma) | TGI (MDA-MB-231 breast) | TGI (MALME-3M melanoma) | TGI (HS 578T breast) | TGI (NCI/ADR-RES ovarian) | TGI (UACC-257 melanoma) | TGI (HCT-15 colon)

O=c1[nH]c(=O)n(C2OC(COP(=O)(O)OP(=O)(O)O)C(O)C2O)cc1F (stereo not drawn)
47.8 µM: TGI (SK-OV-3 ovarian)
> 50 µM: TGI (M14 melanoma) | TGI (MALME-3M melanoma) | TGI (A498 renal) | TGI (UACC-257 melanoma) | TGI (HCT-15 colon)

CN1CCn2c(Br)ccc2C1=O
> 100 µM: TGI (M14 melanoma) | TGI (MALME-3M melanoma) | TGI (A498 renal) | TGI (UACC-257 melanoma) | TGI (HCT-15 colon)

O=C(Nn1c(-c2ccccc2)nc2ccccc2c1=O)c1ccccn1
> 100 µM: TGI (PC-3 prostate) | TGI (SK-OV-3 ovarian) | TGI (M14 melanoma) | TGI (MDA-MB-231 breast) | TGI (MALME-3M melanoma) | TGI (HS 578T breast) | TGI (A498 renal) | TGI (NCI/ADR-RES ovarian) | TGI (UACC-257 melanoma)

OCC1OC(n2cnc3cccnc32)CC1O (stereo not drawn)
> 100 µM: TGI (PC-3 prostate) | TGI (M14 melanoma) | TGI (MDA-MB-231 breast) | TGI (HS 578T breast) | TGI (A498 renal) | TGI (NCI/ADR-RES ovarian) | TGI (UACC-257 melanoma) | TGI (HCT-15 colon)

Nc1nc(Cl)cc(N=Nc2ccccc2)n1
> 100 µM: TGI (SK-OV-3 ovarian) | TGI (M14 melanoma) | TGI (MDA-MB-231 breast) | TGI (MALME-3M melanoma) | TGI (HS 578T breast) | TGI (A498 renal) | TGI (NCI/ADR-RES ovarian) | TGI (UACC-257 melanoma)
35 µM: TGI (HCT-15 colon)

CC1(O)C=CC2CCC1C2O (stereo not drawn)
> 100 µM: TGI (SK-OV-3 ovarian) | TGI (M14 melanoma) | TGI (MALME-3M melanoma) | TGI (A498 renal) | TGI (UACC-257 melanoma) | TGI (HCT-15 colon)

Cc1ccc(C(=O)N(C(C)C)C(C)C)cc1N=NN(C)C
> 100 µM: TGI (PC-3 prostate) | TGI (SK-OV-3 ovarian) | TGI (M14 melanoma) | TGI (MDA-MB-231 breast) | TGI (MALME-3M melanoma) | TGI (HS 578T breast) | TGI (NCI/ADR-RES ovarian) | TGI (UACC-257 melanoma) | TGI (HCT-15 colon)

O=C(c1ccc2ccccc2c1)C1S(=O)(=O)OCCOS1(=O)=O
> 100 µM: TGI (PC-3 prostate) | TGI (M14 melanoma) | TGI (MALME-3M melanoma) | TGI (NCI/ADR-RES ovarian) | TGI (UACC-257 melanoma) | TGI (HCT-15 colon)

O=C1c2[nH]cc(CN3CCNCC3)c2C(=O)c2c1c(O)c1ccccc1c2O
27.7 µM: TGI (SK-OV-3 ovarian)
13.3 µM: TGI (MALME-3M melanoma)
3.18 µM: TGI (MDA-MB-231 breast)
3.23 µM: TGI (M14 melanoma)
2.38 µM: TGI (A498 renal)
4.41 µM: TGI (PC-3 prostate)
inactive: GI50 (PC-3 prostate) 1.83 µM | GI50 (SK-OV-3 ovarian) 5.76 µM | GI50 (M14 melanoma) 1.53 µM | GI50 (MDA-MB-231 breast) 1.51 µM | GI50 (MALME-3M melanoma) 6.3 µM | GI50 (A498 renal) 1.01 µM | GI50 (UACC-257 melanoma) 4.47 µM | GI50 (HCT-15 colon) 1.31 µM
2.7 µM: TGI (HCT-15 colon)

COC(=O)c1ccc(-c2nc(C#N)c(N)o2)cc1
85.8 µM: TGI (MDA-MB-231 breast)
> 100 µM: TGI (PC-3 prostate) | TGI (SK-OV-3 ovarian) | TGI (M14 melanoma) | TGI (MALME-3M melanoma) | TGI (HS 578T breast) | TGI (UACC-257 melanoma) | TGI (HCT-15 colon)

CCN(CC)CCO/N=C1\CC[C@H]2[C@@H]3CC=C4C[C@@H](O)CC[C@]4(C)[C@H]3CC[C@]12C
> 100 µM: TGI (HS 578T breast) | TGI (NCI/ADR-RES ovarian)
35.9 µM: TGI (A498 renal)
50.2 µM: TGI (PC-3 prostate)
28.5 µM: TGI (HCT-15 colon)
30.4 µM: TGI (UACC-257 melanoma)
29.7 µM: TGI (MALME-3M melanoma)
41.2 µM: TGI (MDA-MB-231 breast)

COP(=O)(OC)C(N)CCSC (stereo not drawn)
> 100 µM: TGI (PC-3 prostate) | TGI (SK-OV-3 ovarian) | TGI (M14 melanoma) | TGI (MALME-3M melanoma) | TGI (HS 578T breast) | TGI (NCI/ADR-RES ovarian) | TGI (UACC-257 melanoma) | TGI (HCT-15 colon)

C/C(O)=C(\C=N\C(N)=S)C(=O)Nc1ccccc1C
> 100 µM: TGI (PC-3 prostate) | TGI (SK-OV-3 ovarian) | TGI (M14 melanoma) | TGI (MDA-MB-231 breast) | TGI (HS 578T breast) | TGI (A498 renal) | TGI (NCI/ADR-RES ovarian) | TGI (UACC-257 melanoma) | TGI (HCT-15 colon)

O=C1NC(=S)N/C1=C/c1ccccc1O
> 100 µM: TGI (PC-3 prostate) | TGI (SK-OV-3 ovarian) | TGI (M14 melanoma) | TGI (MDA-MB-231 breast) | TGI (MALME-3M melanoma) | TGI (HS 578T breast) | TGI (NCI/ADR-RES ovarian) | TGI (UACC-257 melanoma) | TGI (HCT-15 colon)

CCOc1ccc2[nH]c3c(C)c4cc[n+](C)cc4c(C)c3c2c1
inactive: GI50 (A498 renal) 11.1 µM and 48 µM | GI50 (HCT-15 colon) 6.05 µM and > 35.6 µM
3.18 µM and 4.52 µM: TGI (MALME-3M melanoma)
0.417 µM and 1.43 µM: GI50 (MALME-3M melanoma)
30.5 µM and 58.5 µM: TGI (M14 melanoma)
> 100 µM: TGI (A498 renal) | TGI (HCT-15 colon)
60.6 µM and 56.3 µM: TGI (SK-OV-3 ovarian)
13.7 µM and 27.8 µM: TGI (UACC-257 melanoma)

CC1(C)COC(c2cccc(C3=NC(C)(C)CO3)c2Br)=N1
> 100 µM: TGI (PC-3 prostate) | TGI (M14 melanoma) | TGI (MDA-MB-231 breast) | TGI (MALME-3M melanoma) | TGI (NCI/ADR-RES ovarian) | TGI (UACC-257 melanoma) | TGI (HCT-15 colon)
